Tests used:
[1] = molecular target: T1, β-amyloid peptide (his-Aβ 1-40) (Homo sapiens, UniProt P05067); assay: Colloid colorimetric drug screen for fibril inhibition at low peptide concentration, no pre-formed aggregate; type: biochemical; conditions: 5 uM his-Aβ 1-40, no pre-formed aggregate; 5 ul drug (2.9 mg/ml in DMSO); 37C 1.5-2 hours; well stays pink vs blue
T1 construct: 10 ul of a 50 uM solution of his-Aβ 1-40 peptide in phosphate buffer
Text: (§1) Compositions were identified that inhibit aggregation characteristic of neurodegenerative disease at high B-amyloid peptide concentration, low peptide concentration, and in some cases both. Compositions that inhibited aggregation at high concentration inhibited formation where an assay included B-amyloid peptide and at least some amount of pre-formed aggregate characteristic of neurodegenerative disease. Compositions that inhibited aggregation at low concentration inhibited […] in the presence of β-amyloid peptide but in the absence of any pre-formed aggregate characteristic of neurodegenerative disease.
In one drug screening method, histidine-tagged AB 1-40 peptides were immobilized on colloids derivatized with self-assembled monolayers containing NTA-Ni for the attachment of histidine-tagged peptides. It has been previously shown that the Aβ peptides, if not inhibited by a drug, will spontaneously convert to the fibrillar form and aggregate, pulling the colloids close together, and causing a color change from pink to blue.
Drugs from the Sigma-RBI Library of Pharmacologically Active Compounds (LOPAC; #SC001, 1999) were dissolved in dimethyl sulphoxide (DMSO) to a final concentration of 2.9 mg/ml. […]

[2] = molecular target: T2, β-amyloid peptide (his-Aβ 1-40) with Aβ 1-42 fibrils (Homo sapiens, UniProt P05067); assay: Colloid drug screen for aggregate inhibition at high peptide concentration, with pre-formed Aβ 1-42 fibrils; type: biochemical; conditions: 20 uM his-Aβ 1-40 + 1 uM Aβ 1-42 fibrils; 5 ul drug (2.9 mg/ml in DMSO) in 100 ul; 37° C. 4-6 hours; microscope 40×
T2 construct: 10 ul of a 200 uM solution of his-Aβ 1-40 peptide in phosphate buffer; 3.3 ul of 30 uM Aβ 1-42 fibrils (non-histidine-tagged) was added to each well
T2 sequence (P05067 672-713): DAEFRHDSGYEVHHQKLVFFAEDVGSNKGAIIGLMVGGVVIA
T2 sequence (P05067 672-711): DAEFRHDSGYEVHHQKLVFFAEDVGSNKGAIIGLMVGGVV
Text: as §1
In another drug screening method, drugs were incubated with Aβ 1-42 fibrils, which will convert normal Aβ 1-40 peptides to the fibrillar form at a faster rate than Aβ 1-40 fibrils. Histidine-tagged Aβ 1-40 peptides were then added to the wells, along with colloids derivatized with self-assembled monolayers containing NTA-Ni for the attachment of histidine-tagged Aβ 1-40. It was previously shown that Aβ 1-42 fibrils will cause accelerated conversion of Aβ 1-40, which will then incorporate into large aggregates structures. These aggregates are colored red by the colloids attached to the peptides, and are easily visible under the microscope.
5 ul of each drug in DMSO was added to the wells of a 96-well ELISA plate, which contained 52 ul of phosphate buffer. […]

[3] = test system: Amyloid Precursor Protein (APP) in HEK cells; assay: Colorimetric whole cell screening assay for drugs that effect APP production, secretion, or cleavage; type: cell-based, Human; conditions: HEK cells expressing APP; 1.25 ul of 2.9 mg/mL drug in DMSO per well, approx. 18 hours; then 5 uM His-AB colloids 8-12 hours
Experimental: Human Embryonic Kidney (HEK) cells expressing the Amyloid Precursor Protein (APP) were split into the wells of a 96-well cell-culture plate and were allowed to adhere and spread. […] Positive control cells were given DMSO in place of a drug. […] Cells were allowed to grow overnight for approximately 18 hours at 37C. After 18 hours, 1.925 mL of a 30 uM solution of His-tagged AB(1-40) in phosphate buffer was mixed with 2.880 mL 40 uM NTA colloids for a resulting concentration of 12 uM His-AB. 50 ul of the AB colloid solution was added to each well of the cell-culture plate, which contained 70 ul cell culture media per well. […] The plates were incubated at 37C for 8-12 hours, or until a color change from pink to blue occurred in the positive controls.
Once the positive controls changed color from pink to blue, the wells containing drug candidates were visually examined for a color change. […] Cell death due to drug toxicity would obviously effect APP production, and may cause a well to remain pink. For this reason, all wells containing drug candidates were examined under the microscope for cell viability.

T1 sequence (P05067 672-711): as above

COc1cc(Cc2cnc(N)nc2N)cc(OC)c1OC [trimethoprim]
do not provide a positive result: inhibition of aggregate formation at low peptide concentration [1] | inhibition of aggregate formation at high peptide concentration [2] | effect on APP production, secretion, or cleavage (lack of color change pink to blue) [3]
